Data as given in patent publication US20260022143A1, “Cyclic Peptide Inhibitors of IL-23” (JANSSEN PHARMACEUTICA NV, priority 2022, published 2026).
Starred links: 1 amine or outer side, 2 acyl side, 3 side chain; linkers in the order of their positions; H or OH if unused. Positions of bridges follow the written chain, without caps; N, C: chain ends. Non-standard residues stand in square brackets, D forms with d. Residues, ends and D or L forms follow the SMILES beside them. *: point of attachment. X64 = C[N+]1(C)CCN(c2ccc(C[C@H](N[*:1])C(=O)[*:2])cc2)CC1; Me3N+(CH2)2O(CH2)2O(CH2)2CO = C[N+](C)(C)CCOCCOCCC(=O)*; Trp(7-Me) = Cc1cccc2c(C[C@H](N)C(=O)O)c[nH]c12; X47 = C[N+]1(C)CC[N+]2(CCN(CC*)CC2)CC1; 2Nal = N[C@@H](Cc1ccc2ccccc2c1)C(=O)O; X50 = CCCC[N+](CCCC)(CCCC)CCOCCOCC*; X45 = COCC[N+](C)(C)CCc1cn(CC*)nn1; X26 = C[N+](C)(C)CCCCc1cn(CC*)nn1; 3Pal = N[C@@H](Cc1cccnc1)C(=O)O; X14 = C[N+](C)(C)CCc1cn(CC*)nn1; Lys(Me) = CNCCCC[C@H](N)C(=O)O; Pen = CC(C)(S)[C@H](N)C(=O)O; Thp = NC1(C(=O)O)CCOCC1; Sar = CNCC(=O)O

Experiments:
IL-23R = biological target: T1, IL-23R (Homo sapiens, UniProt Q5VWK5); assay: IL23R Reporter Assay; format: cell-based; settings: HEK293 cells containing IL-23R, IL-12RP1 and STAT-inducible firefly luciferase reporter; 10 ng/mL IL-23 (EC90); 5 h at 37° C.; read-out: IL23R Reporter Assay
T1 construct: host or cells: HEK293
T1 sequence (Q5VWK5 24-629): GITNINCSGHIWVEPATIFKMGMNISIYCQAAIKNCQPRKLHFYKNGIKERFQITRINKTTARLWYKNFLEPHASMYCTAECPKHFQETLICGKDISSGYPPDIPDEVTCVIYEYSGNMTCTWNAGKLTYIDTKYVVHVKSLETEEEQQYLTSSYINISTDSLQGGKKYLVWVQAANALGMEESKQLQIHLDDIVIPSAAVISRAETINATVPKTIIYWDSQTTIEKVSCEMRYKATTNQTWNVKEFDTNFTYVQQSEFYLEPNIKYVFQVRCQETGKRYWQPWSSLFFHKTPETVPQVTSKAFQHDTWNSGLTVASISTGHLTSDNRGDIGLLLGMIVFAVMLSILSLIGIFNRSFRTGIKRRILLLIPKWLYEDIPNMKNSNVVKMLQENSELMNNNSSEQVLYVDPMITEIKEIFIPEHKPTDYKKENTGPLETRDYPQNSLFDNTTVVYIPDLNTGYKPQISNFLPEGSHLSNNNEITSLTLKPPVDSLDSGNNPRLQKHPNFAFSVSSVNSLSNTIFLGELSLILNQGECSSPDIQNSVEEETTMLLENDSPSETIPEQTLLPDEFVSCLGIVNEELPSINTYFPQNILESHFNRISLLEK

[1] = Exposed Polar Surface Area (EPSA); format: physicochemical; settings: SFC on Chirex 3014 column; sample 1 mM DMSO stock; read-out: EPSA
Outline: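 Compounds, as 1 mM DMSO stock, were injected in duplicate onto an SFC Chirex 3014 column at 35 °C and eluted with a CO2/methanol (20 mM ammonium formate) gradient. EPSA values in Å^2 were derived from retention times using a linear fit to eight calibration standards, reinjected every 20 compounds.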

Row | IC50 (IL-23R) [nM] | EPSA [1] [A^2] | SMILES
1 | 40 | 146 | CC(=O)NCCCC[C@@H]1NC(=O)[C@H](Cc2c[nH]c3c(C)cccc23)NC(=O)[C@H]([C@@H](C)O)NC(=O)[C@H](CC(N)=O)NC(=O)[C@@H](NC(C)=O)C(C)(C)SSC(C)(C)[C@@H](C(=O)N[C@@H](Cn2cc(CC[N+](C)(C)C)nn2)C(=O)N[C@@H](Cc2ccc3ccccc3c2)C(=O)NC2(C(=O)N[C@@H](CCCCNC(C)=O)C(=O)N[C@@H](CC(N)=O)C(=O)N[C@@H](Cc3cccnc3)C(=O)N(C)CC(N)=O)CCOCC2)NC1=O [compound 253]
2 | 6.9 | 151 | CC(=O)NCCCC[C@@H]1NC(=O)[C@H](Cc2c[nH]c3c(C)cccc23)NC(=O)[C@H]([C@@H](C)O)NC(=O)[C@H](CC(N)=O)NC(=O)[C@@H](NC(C)=O)C(C)(C)SSC(C)(C)[C@@H](C(=O)N[C@@H](Cc2ccc(OCCn3cc(CCCC[N+](C)(C)C)nn3)cc2)C(=O)N[C@@H](Cc2ccc3ccccc3c2)C(=O)NC2(C(=O)N[C@@H](CCCCNC(C)=O)C(=O)N[C@@H](CC(N)=O)C(=O)N[C@@H](Cc3cccnc3)C(=O)N(C)CC(N)=O)CCOCC2)NC1=O [compound 258] (Ac-[Pen]NT[Trp(7-Me)]K(Ac)[Pen]Y(X26)[2Nal][Thp]K(Ac)N[3Pal][Sar]-NH2; disulfide 1-6 (inferred))
3 | 5 | 140 | CCCC[N+](CCCC)(CCCC)CCOCCOCCOc1ccc(C[C@H](NC(=O)[C@H]2NC(=O)[C@H](CCCCN(C)C(C)=O)NC(=O)[C@H](Cc3c[nH]c4c(C)cccc34)NC(=O)[C@H]([C@@H](C)O)NC(=O)[C@H](CC(=O)N(C)C)NC(=O)[C@@H](NC(=O)CCOCCOCC[N+](C)(C)C)C(C)(C)SSC2(C)C)C(=O)N[C@@H](Cc2ccc3ccccc3c2)C(=O)NC2(C(=O)N[C@@H](CCCCN(C)C(C)=O)C(=O)N[C@@H](CC(N)=O)C(=O)N[C@@H](Cc3cccnc3)C(=O)N(C)CC(=O)N(C)C)CCOCC2)cc1 [compound 263, cPEG3aCO-Pen(3)-N(N(Me)2)-T-7MeW-K(NMeAc)-Pen(3)-TBAPEG3F-2Nal-THP-K(NMeAc)-N-3Pya-Sar-CON(Me)2] ({Me3N+(CH2)2O(CH2)2O(CH2)2CO}-[Pen]D(NMe2)T[Trp(7-Me)][Lys(Me)](Ac)[Pen]Y(X50)[2Nal][Thp][Lys(Me)](Ac)N[3Pal][Sar]-NMe2; disulfide 1-6 (inferred))
4 | 6.4 | 159 | CC(=O)N(C)CCCC[C@@H]1NC(=O)[C@H](Cc2c[nH]c3c(C)cccc23)NC(=O)[C@H]([C@@H](C)O)NC(=O)[C@H](CC(=O)N(C)C)NC(=O)[C@@H](NC(=O)CCOCCOCC[N+](C)(C)C)C(C)(C)SSC(C)(C)[C@@H](C(=O)NC(Cc2ccc(OCCN(CCOCC[N+](C)(C)C)CCOCC[N+](C)(C)C)cc2)C(=O)N[C@@H](Cc2ccc3ccccc3c2)C(=O)NC2(C(=O)N[C@@H](CCCCN(C)C(C)=O)C(=O)N[C@@H](CC(N)=O)C(=O)N[C@@H](Cc3cccnc3)C(=O)N(C)CC(=O)N(C)C)CCOCC2)NC1=O (stereo partly drawn) [compound 265, cPEG3aCO-Pen(3)-N(N(Me)2)-T-7MeW-K(NMeAc)-Pen(3)-AEF(BisPEG2a)(RS)-2Nal-THP-K(NMeAc)-N-3Pya-Sar-CON(Me)2]
5 | 1.4 | 167 | CC(=O)N(C)CCCC[C@@H]1NC(=O)[C@H](Cc2c[nH]c3c(C)cccc23)NC(=O)[C@H]([C@@H](C)O)NC(=O)[C@H](CC(=O)N(C)C)NC(=O)[C@@H](NC(=O)CCOCCOCC[N+](C)(C)C)C(C)(C)SSC(C)(C)[C@@H](C(=O)N[C@@H](Cc2ccc(OCCN3CC[N+]4(CC3)CC[N+](C)(C)CC4)cc2)C(=O)N[C@@H](Cc2ccc3ccccc3c2)C(=O)NC2(C(=O)N[C@@H](CCCCN(C)C(C)=O)C(=O)N[C@@H](CC(N)=O)C(=O)N[C@@H](Cc3cccnc3)C(=O)N(C)CC(=O)N(C)C)CCOCC2)NC1=O [compound 269, cPEG3aCO-Pen(3)-N(N(Me)2)-T-7MeW-K(NMeAc)-Pen(3)-DMTASF-2Nal-THP-K(NMeAc)-N-3Pya-Sar-CON(Me)2] ({Me3N+(CH2)2O(CH2)2O(CH2)2CO}-[Pen]D(NMe2)T[Trp(7-Me)][Lys(Me)](Ac)[Pen]Y(X47)[2Nal][Thp][Lys(Me)](Ac)N[3Pal][Sar]-NMe2; disulfide 1-6)
6 | 2.6 | 157 | CC(=O)N(C)CCCC[C@@H]1NC(=O)[C@H](Cc2c[nH]c3c(C)cccc23)NC(=O)[C@H]([C@@H](C)O)NC(=O)[C@H](CC(=O)N(C)C)NC(=O)[C@@H](NC(=O)CCOCCOCC[N+](C)(C)C)C(C)(C)SSC(C)(C)[C@@H](C(=O)N[C@@H](Cc2ccc(N3CC[N+](C)(C)CC3)cc2)C(=O)N[C@@H](Cc2ccc3ccccc3c2)C(=O)NC2(C(=O)N[C@@H](CCCCN(C)C(C)=O)C(=O)N[C@@H](CC(N)=O)C(=O)N[C@@H](Cc3cccnc3)C(=O)N(C)CC(=O)N(C)C)CCOCC2)NC1=O [compound 273, cPEG3aCO-Pen(3)-N(N(Me)2)-T-7MeW-K(NMeAc)-Pen(3)-PiperazinequatF-2Nal-THP-K(NMeAc)-N-3Pya-Sar-CON(Me)2] ({Me3N+(CH2)2O(CH2)2O(CH2)2CO}-[Pen]D(NMe2)T[Trp(7-Me)][Lys(Me)](Ac)[Pen][X64][2Nal][Thp][Lys(Me)](Ac)N[3Pal][Sar]-NMe2; disulfide 1-6)
7 | 3.8 | 148 | COCC[N+](C)(C)CCc1cn(CCOc2ccc(C[C@H](NC(=O)[C@H]3NC(=O)[C@H](CCCCN(C)C(C)=O)NC(=O)[C@H](Cc4c[nH]c5c(C)cccc45)NC(=O)[C@H]([C@@H](C)O)NC(=O)[C@H](CC(=O)N(C)C)NC(=O)[C@@H](NC(=O)CCOCCOCC[N+](C)(C)C)C(C)(C)SSC3(C)C)C(=O)N[C@@H](Cc3ccc4ccccc4c3)C(=O)NC3(C(=O)N[C@@H](CCCCN(C)C(C)=O)C(=O)N[C@@H](CC(N)=O)C(=O)N[C@@H](Cc4cccnc4)C(=O)N(C)CC(=O)N(C)C)CCOCC3)cc2)nn1 [compound 285, cPEG3aCO-Pen(3)-N(N(Me)2)-T-7MeW-K(NMeAc)-Pen(3)-Y(OTzlChmPEG)-2Nal-THP-K(NMeAc)-N-3Pya-Sar-CON(Me)2] ({Me3N+(CH2)2O(CH2)2O(CH2)2CO}-[Pen]D(NMe2)T[Trp(7-Me)][Lys(Me)](Ac)[Pen]Y(X45)[2Nal][Thp][Lys(Me)](Ac)N[3Pal][Sar]-NMe2; disulfide 1-6)
8 | 3.2 | 149 | CC(=O)N(C)CCCC[C@@H]1NC(=O)[C@H](Cc2c[nH]c3c(C)cccc23)NC(=O)[C@H]([C@@H](C)O)NC(=O)[C@H](CC(=O)N(C)C)NC(=O)[C@@H](NC(=O)CCOCCOCC[N+](C)(C)C)C(C)(C)SSC(C)(C)[C@@H](C(=O)N[C@@H](Cc2ccc(OCCn3cc(CC[N+](C)(C)C)nn3)cc2)C(=O)N[C@@H](Cc2ccc3ccccc3c2)C(=O)NC2(C(=O)N[C@@H](CCCCN(C)C(C)=O)C(=O)N[C@@H](CC(N)=O)C(=O)N[C@@H](Cc3cccnc3)C(=O)N(C)CC(=O)N(C)C)CCOCC2)NC1=O [compound 286, cPEG3aCO-Pen(3)-N(N(Me)2)-T-7MeW-K(NMeAc)-Pen(3)-Y(OTzlCh)-2Nal-THP-K(NMeAc)-N-3Pya-Sar-CON(Me)2] ({Me3N+(CH2)2O(CH2)2O(CH2)2CO}-[Pen]D(NMe2)T[Trp(7-Me)][Lys(Me)](Ac)[Pen]Y(X14)[2Nal][Thp][Lys(Me)](Ac)N[3Pal][Sar]-NMe2; disulfide 1-6)
